We go through 53 compounds from paper PMC5863483, “Low HLA binding of diabetes-associated CD8+ T-cell epitopes is increased by post translational modifications” (BMC Immunology, 2018).

Where a SMILES comes first, the peptide text is derived from it. Where no end group is shown, it is not given here. [ ]: non-standard residue; d: D form. Tyr(3-Cl) = N[C@@H](Cc1ccc(O)c(Cl)c1)C(=O)O; Cya = N[C@@H](CS(=O)(=O)O)C(=O)O; Cit = NC(=O)NCCC[C@H](N)C(=O)O Where only a bound is given, the exact number is not on record here.

The first test addresses HLA-A*02:01 (Homo sapiens, UniProt P04439, D140Y/D185E/D98H/E176V/E277Q/G131W/G231S/I119V/I121R/I166T/I218V/L300P/L318F/N151K/N90K/P208A/P217A/Q86G/Q94H/R138H/R169H/T345S). Briefly: HLA-peptide competition binding assay, A*02:01.
Details: not given
As for `CC(C)C[C@H](NC(=O)[C@H](C)NC(=O)[C@@H](N)CCC(=O)O)C(=O)N[C@@H](Cc1ccc(O)cc1)C(=O)N[C@@H](CC(C)C)C(=O)N[C@H](C(=O)N[C@@H](CS)C(=O)NCC(=O)N[C@@H](CCC(=O)O)C(=O)N[C@@H](CCCNC(N)=O)C(=O)O)C(C)C` (H-EALYLVCGE[Cit]-OH), the IC50 is 3100 nM. Still for that read-out and setting: for `C[C@@H](O)[C@H](NC(=O)[C@H](CCCCN)NC(=O)[C@@H]1CCCN1C(=O)[C@@H](NC(=O)[C@H](Cc1ccc(O)cc1)NC(=O)[C@H](Cc1ccccc1)NC(=O)[C@H](Cc1ccccc1)NC(=O)CN)[C@@H](C)O)C(=O)N[C@@H](CCCNC(N)=O)C(=O)O` the value was 38400 nM; for RGYYYTPKT, 8810 nM; for SHLVEALYLV [reference compound], 2150 nM.

Staying with this test, now noted: increase of A*02:01 binding of the modified peptide compared to the WT peptide.
`CC(C)C[C@H](NC(=O)[C@@H](N)Cc1ccc(O)c(Cl)c1)C(=O)N[C@H](C(=O)N[C@@H](CS)C(=O)NCC(=O)N[C@@H](CCC(=O)O)C(=O)N[C@@H](CCCNC(=N)N)C(=O)NCC(=O)N[C@@H](Cc1ccccc1)C(=O)O)C(C)C` [JLVCGERGF] (H-[Tyr(3-Cl)]LVCGERGF-OH; N-terminus and C-terminus assumed) displayed a Fold increase of 2.13 fold. On the same count and under the same terms, with `CC(C)C[C@H](NC(=O)[C@H](C)NC(=O)[C@H](CCC(=O)O)NC(=O)[C@@H](NC(=O)[C@H](CC(C)C)NC(=O)[C@H](Cc1c[nH]cn1)NC(=O)[C@@H](N)CO)C(C)C)C(=O)N[C@@H](Cc1ccc(O)c(Cl)c1)C(=O)N[C@@H](CC(C)C)C(=O)N[C@H](C(=O)O)C(C)C` [SHLVEALJLV] (H-SHLVEAL[Tyr(3-Cl)]LV-OH) the figure was 2.02 fold.

Still in this test, the particulars now being: post-translationally modified insulin peptide; competition binding assay; a dash indicates IC50 >40,000 nM; read-out: A*02:01 binding (IC50 nM) Modified.
For `CC(C)C[C@H](NC(=O)[C@H](Cc1c[nH]cn1)NC(=O)[C@@H](N)CCC(N)=O)C(=O)N[C@@H](CS(=O)(=O)O)C(=O)NCC(=O)N[C@@H](CO)C(=O)N[C@@H](Cc1c[nH]cn1)C(=O)N[C@@H](CC(C)C)C(=O)N[C@H](C(=O)N[C@@H](CCC(=O)O)C(=O)O)C(C)C` [QHLBGSHLVE] (H-QHL[Cya]GSHLVE-OH; N-terminus and C-terminus assumed), the IC50 is > 40000 nM. Still for that read-out and setting: with `CC(C)[C@H](N)C(=O)N[C@@H](CS)C(=O)NCC(=O)N[C@@H](CCC(=O)O)C(=O)N[C@@H](CCCNC(N)=O)C(=O)NCC(=O)N[C@@H](Cc1ccccc1)C(=O)N[C@@H](Cc1ccccc1)C(=O)N[C@@H](Cc1ccc(O)cc1)C(=O)N[C@H](C(=O)O)[C@@H](C)O` (H-VCGE[Cit]GFFYT-OH; N-terminus and C-terminus assumed) the figure was > 40000 nM; with `CC(C)C[C@H](NC(=O)[C@H](CC(=O)O)NC(=O)[C@H](CCC(=O)O)NC(=O)[C@H](C)NC(=O)[C@H](CCC(=O)O)NC(=O)[C@H](CCCNC(N)=O)NC(=O)[C@H](CCCNC(N)=O)NC(=O)[C@@H](N)[C@@H](C)O)C(=O)N[C@@H](CCC(N)=O)C(=O)O` (H-T[Cit][Cit]EAEDLQ-OH; N-terminus and C-terminus assumed), > 40000 nM. On the same count and under the same terms, with `C[C@@H](O)[C@H](NC(=O)[C@H](Cc1ccc(O)cc1)NC(=O)[C@H](Cc1ccccc1)NC(=O)[C@H](Cc1ccccc1)NC(=O)CNC(=O)[C@H](CCCNC(N)=O)NC(=O)[C@H](CCC(=O)O)NC(=O)CN)C(=O)N1CCC[C@H]1C(=O)O` (H-GE[Cit]GFFYTP-OH; N-terminus and C-terminus assumed) the figure was > 40000 nM; with `CC(C)C[C@H](NC(=O)[C@H](CO)NC(=O)CNC(=O)[C@H](CCC(=O)O)NC(=O)[C@@H](N)CC(C)C)C(=O)N[C@@H](CCC(N)=O)C(=O)N[C@@H](CCCCN)C(=O)N[C@@H](CCCNC(N)=O)C(=O)NCC(=O)O` (H-LEGSLQK[Cit]G-OH; N-terminus and C-terminus assumed), > 40000 nM; with `CC(C)C[C@H](NC(=O)[C@H](C)NC(=O)[C@H](CCC(=O)O)NC(=O)[C@@H](NC(=O)[C@H](CC(C)C)NC(=O)[C@H](Cc1c[nH]cn1)NC(=O)[C@H](CO)NC(=O)CNC(=O)[C@@H](N)CS(=O)(=O)O)C(C)C)C(=O)O` [BGSHLVEAL] (H-[Cya]GSHLVEAL-OH; N-terminus and C-terminus assumed), > 40000 nM.

Consider FVDEHLCGS, for which the IC50 is > 40000 nM. With RGYFYTPKT, the IC50 is > 40000 nM. On to LVCGERGYFY, for which the IC50 was > 40000 nM. With `CC(C)C[C@H](NC(=O)[C@H](Cc1c[nH]cn1)NC(=O)[C@H](CO)NC(=O)CNC(=O)[C@H](CS(=O)(=O)O)NC(=O)[C@H](CC(C)C)NC(=O)[C@H](Cc1c[nH]cn1)NC(=O)[C@H](CCC(N)=O)NC(=O)[C@@H](N)CC(N)=O)C(=O)O` [NQHLBGSHL] (H-NQHL[Cya]GSHL-OH; N-terminus and C-terminus assumed), the IC50 is > 40000 nM. On the same count and under the same terms, with DEHLCGSHL the figure was > 40000 nM.

Still in this test, the particulars now being: post-translationally modified insulin-derived peptide; radiolabeled ligand competition, purified MHC, two-day incubation, three or more independent experiments; read-out: A*02:01 binding, Modified.
With EHLCGSHLV, the IC50 was 7240 nM.

Staying with this test, now noted: read-out: A*02:01 binding (IC50 nM) Modified.
With YLVCGERGYF, the IC50 is 2010 nM. As for `CC(C)C[C@H](NC(=O)[C@H](CC(=O)O)NC(=O)[C@H](CCC(=O)O)NC(=O)[C@H](C)NC(=O)[C@H](CCC(=O)O)NC(=O)[C@H](CCCNC(N)=O)NC(=O)[C@H](CCCNC(N)=O)NC(=O)[C@@H](N)[C@@H](C)O)C(=O)N[C@@H](CCC(N)=O)C(=O)N[C@H](C(=O)O)C(C)C` (H-T[Cit][Cit]EAEDLQV-OH), the IC50 is 30200 nM. On the same count and under the same terms, for CGERGYFYT the value was 26300 nM; for `CC(C)C[C@H](NC(=O)[C@H](Cc1ccc(O)cc1)NC(=O)[C@@H](N)CC(C)C)C(=O)N[C@H](C(=O)N[C@@H](CS(=O)(=O)O)C(=O)NCC(=O)N[C@@H](CCC(=O)O)C(=O)N[C@@H](CCCNC(=N)N)C(=O)NCC(=O)N[C@@H](Cc1ccc(O)cc1)C(=O)O)C(C)C` [LYLVBGERGY] (H-LYLV[Cya]GERGY-OH), 35500 nM.

Staying with this test, now noted: read-out: A*02:01 binding (IC50 nM) Modified; post-translationally modified insulin peptide; competition binding assay; a dash indicates IC50 >40,000 nM.
Regarding `C[C@@H](O)[C@H](NC(=O)[C@H](Cc1ccc(O)cc1)NC(=O)[C@H](Cc1ccc(O)cc1)NC(=O)[C@H](Cc1ccc(O)cc1)NC(=O)CNC(=O)[C@H](CCCNC(=N)N)NC(=O)[C@H](CCC(=O)O)NC(=O)CNC(=O)[C@@H](N)CS(=O)(=O)O)C(=O)N1CCC[C@H]1C(=O)O` [BGERGYYYTP] (H-[Cya]GERGYYYTP-OH; N-terminus and C-terminus assumed), the IC50 was > 40000 nM.

Consider ERGYYYTPK, for which the IC50 was > 40000 nM.

The same test, now with this note: read-out: A*02:01 binding (IC50 nM) WT.
For YLVCGERGFF, the IC50 stood at 1400 nM. On to VEALYLVCG, for which the IC50 stood at 14300 nM.

Regarding SHLVEALYL, the IC50 amounted to 257 nM.

The same test, now with this note: read-out: IC50 nM, target assay A*02:01.
In the case of “RLLPLLALLAL [RLLPLLALLAL, reference compound]”, the IC50 worked out at 109 nM. For AVAANIVLTV [reference compound], the IC50 was determined as 575 nM. The same measure, in the same setting: for “RLLPLWAAL [RLLPLWAAL, reference compound]” the value was 52 nM. Still for that read-out and setting: with VLNSVASLL [reference compound] the figure was 1140 nM. Regarding ALARGAGTVPL [reference compound], the IC50 was determined as 29 nM.

As for LLQEYNWEL [reference compound], the IC50 came out at 35 nM. Same read-out and setting: with ILKDFSILL [reference compound] the figure was 39 nM.

Regarding ILMHCQTTL [reference compound], the IC50 amounted to 478 nM.

With NLLGRFELIGI [reference compound], the IC50 worked out at 1.8 nM.

On to “LCGSHLVEAL [LCGSHLVEAL, reference compound]”, for which the IC50 is > 40000 nM.

Take LNIDLLWSV [reference compound]: the IC50 was 684 nM.

As for `CC[C@H](C)[C@H](NC(=O)[C@H](CC(N)=O)NC(=O)[C@H](C)NC(=O)[C@H](CC(C)C)NC(=O)[C@@H](N)CCCCN)C(=O)N[C@@H](CCC(N)=O)C(=O)N[C@@H](CS)C(=O)N[C@@H](CC(C)C)C(=O)N[C@@H](CS)C(=O)N[C@@H](CC(C)C)C(=O)O` [reference compound] (H-KLANIQCLCL-OH), the IC50 turned out to be 97 nM. Still for that read-out and setting: with YIPSCTVVGM [reference compound] the figure was 9510 nM.

The test is the same for the next values; noted with them: unmodified (WT) insulin peptide; competition binding assay; a dash indicates IC50 >40,000 nM; read-out: A*02:01 binding (IC50 nM) WT.
For `C[C@@H](O)[C@H](NC(=O)[C@H](CCCCN)NC(=O)[C@@H]1CCCN1C(=O)[C@@H](NC(=O)[C@H](Cc1ccc(O)cc1)NC(=O)[C@H](Cc1ccccc1)NC(=O)[C@H](Cc1ccccc1)NC(=O)CNC(=O)[C@@H](N)CCCNC(=N)N)[C@@H](C)O)C(=O)O`, the IC50 is > 40000 nM. On the same count and under the same terms, for LVCGERGFF the value was > 40000 nM; for FFYTPKTRR, > 40000 nM. On to FYTPKTRREA, for which the IC50 is > 40000 nM.

In the case of GERGFFYTP, the IC50 was > 40000 nM. The same measure, in the same setting: for QHLCGSHLVE the value was > 40000 nM.

Consider PKTRREAED [PKTRREAED], for which the IC50 is > 40000 nM. The same measure, in the same setting: with RREAEDLQVG the figure was > 40000 nM; with LQKRGIVEQC, > 40000 nM. Turning to “LCGSHLVEAL [LCGSHLVEAL, reference compound]”, the IC50 is > 40000 nM. The same measure, in the same setting: for `C[C@@H](O)[C@H](NC(=O)[C@H](CCCCN)NC(=O)[C@@H]1CCCN1C(=O)[C@@H](NC(=O)[C@H](Cc1ccc(O)cc1)NC(=O)[C@H](Cc1ccccc1)NC(=O)[C@H](Cc1ccccc1)NC(=O)CN)[C@@H](C)O)C(=O)N[C@@H](CCCNC(=N)N)C(=O)N[C@@H](CCCNC(=N)N)C(=O)O` the value was > 40000 nM; for `C[C@@H](O)[C@H](NC(=O)[C@H](Cc1ccc(O)cc1)NC(=O)[C@H](Cc1ccccc1)NC(=O)[C@H](Cc1ccccc1)NC(=O)CNC(=O)[C@H](CCCNC(=N)N)NC(=O)[C@H](CCC(=O)O)NC(=O)CN)C(=O)N1CCC[C@H]1C(=O)N[C@@H](CCCCN)C(=O)O`, > 40000 nM.

Still in this test, the particulars now being: unmodified (wild type) insulin-derived peptide; radiolabeled ligand competition, purified MHC, two-day incubation, three or more independent experiments; read-out: A*02:01 binding, WT.
`C[C@@H](O)[C@H](NC(=O)[C@H](CCCCN)NC(=O)[C@@H]1CCCN1C(=O)[C@@H](NC(=O)[C@H](Cc1ccc(O)cc1)NC(=O)[C@H](Cc1ccccc1)NC(=O)[C@H](Cc1ccccc1)NC(=O)CNC(=O)[C@@H](N)CCCNC(=N)N)[C@@H](C)O)C(=O)O`: the IC50 was > 40000 nM.

Consider LYLVCGERG, for which the IC50 is 28000 nM.

Take CGSHLVEALY: the IC50 was 33700 nM.
